# Measurements: the NIST ThermoML archive (doi:10.1021/je300993n)
# ± gives the expanded uncertainty stated by the source.
# Assay: refractive index (Na D-line) (dimensionless); wn = mass fraction of the nth substance listed
# Details: 293.15 K; 101 kPa; Liquid; Standard Abbe refractometry; w1 = 0.3
row,refractive index,SMILES
1,1.3636 ± 0.0051,"CCCC[N+](CC)(CC)CC.F[B-](F)(F)F [N,N,N-triethyl-N-butylammonium tetrafluoroborate] + O=S(=O)(O)C(F)(F)F"
2,1.3563 ± 0.0051,"CCCCCC[N+](CC)(CC)CC.[F][Sb-]([F])([F])([F])([F])[F] [N,N,N-triethyl-N-hexylammonium hexafluoroantimonate] + O=S(=O)(O)C(F)(F)F"
3,1.3667 ± 0.0051,"CCCCCC[N+](CC)(CC)CC.F[P-](F)(F)(F)(F)F [N,N,N-triethyl-N-hexylammonium hexafluorophosphate] + O=S(=O)(O)C(F)(F)F"
4,1.3654 ± 0.0051,"CCCCCC[N+](CC)(CC)CC.F[B-](F)(F)F [N,N,N-triethyl-N-hexylammonium tetrafluoroborate] + O=S(=O)(O)C(F)(F)F"
5,1.3681 ± 0.0051,"CCCCCCCC[N+](CC)(CC)CC.F[P-](F)(F)(F)(F)F [N,N,N-triethyl-N-octylammonium hexafluorophosphate] + O=S(=O)(O)C(F)(F)F"
6,1.3672 ± 0.0051,"CCCCCCCC[N+](CC)(CC)CC.F[B-](F)(F)F [N,N,N-triethyl-N-octylammonium tetrafluoroborate] + O=S(=O)(O)C(F)(F)F"
7,1.3498 ± 0.0051,CC[N+](CC)(CC)CC.[F][Sb-]([F])([F])([F])([F])[F] [tetraethylammonium hexafluoroantimonate] + O=S(=O)(O)C(F)(F)F
8,1.3602 ± 0.0051,CC[N+](CC)(CC)CC.F[P-](F)(F)(F)(F)F [tetraethylammonium hexafluorophosphate] + O=S(=O)(O)C(F)(F)F
9,1.3601 ± 0.0051,CC[N+](CC)(CC)CC.F[B-](F)(F)F [tetraethylammonium tetrafluoroborate] + O=S(=O)(O)C(F)(F)F

# Same assay, conditions: 293.15 K; 101 kPa; Liquid; Standard Abbe refractometry; w1 = 0.4
row,refractive index,SMILES
1,1.3745 ± 0.0051,"CCCC[N+](CC)(CC)CC.F[P-](F)(F)(F)(F)F [N,N,N-triethyl-N-butylammonium hexafluorophosphate] + O=S(=O)(O)C(F)(F)F"
2,1.3698 ± 0.0051,"CCCC[N+](CC)(CC)CC.F[B-](F)(F)F [N,N,N-triethyl-N-butylammonium tetrafluoroborate] + O=S(=O)(O)C(F)(F)F"
3,1.3628 ± 0.0051,"CCCCCC[N+](CC)(CC)CC.[F][Sb-]([F])([F])([F])([F])[F] [N,N,N-triethyl-N-hexylammonium hexafluoroantimonate] + O=S(=O)(O)C(F)(F)F"
4,1.3762 ± 0.0051,"CCCCCC[N+](CC)(CC)CC.F[P-](F)(F)(F)(F)F [N,N,N-triethyl-N-hexylammonium hexafluorophosphate] + O=S(=O)(O)C(F)(F)F"
5,1.3728 ± 0.0051,"CCCCCC[N+](CC)(CC)CC.F[B-](F)(F)F [N,N,N-triethyl-N-hexylammonium tetrafluoroborate] + O=S(=O)(O)C(F)(F)F"
6,1.3781 ± 0.0051,"CCCCCCCC[N+](CC)(CC)CC.F[P-](F)(F)(F)(F)F [N,N,N-triethyl-N-octylammonium hexafluorophosphate] + O=S(=O)(O)C(F)(F)F"
7,1.3745 ± 0.0051,"CCCCCCCC[N+](CC)(CC)CC.F[B-](F)(F)F [N,N,N-triethyl-N-octylammonium tetrafluoroborate] + O=S(=O)(O)C(F)(F)F"
8,1.3571 ± 0.0051,CC[N+](CC)(CC)CC.[F][Sb-]([F])([F])([F])([F])[F] [tetraethylammonium hexafluoroantimonate] + O=S(=O)(O)C(F)(F)F
9,1.3691 ± 0.0051,CC[N+](CC)(CC)CC.F[P-](F)(F)(F)(F)F [tetraethylammonium hexafluorophosphate] + O=S(=O)(O)C(F)(F)F
10,1.3656 ± 0.0051,CC[N+](CC)(CC)CC.F[B-](F)(F)F [tetraethylammonium tetrafluoroborate] + O=S(=O)(O)C(F)(F)F

# Same assay, conditions: 293.15 K; 101 kPa; Liquid; Standard Abbe refractometry; w1 = 0.5
row,refractive index,SMILES
1,1.3786 ± 0.005,"CCCC[N+](CC)(CC)CC.F[P-](F)(F)(F)(F)F [N,N,N-triethyl-N-butylammonium hexafluorophosphate] + O=S(=O)(O)C(F)(F)F"
2,1.3771 ± 0.0051,"CCCC[N+](CC)(CC)CC.F[B-](F)(F)F [N,N,N-triethyl-N-butylammonium tetrafluoroborate] + O=S(=O)(O)C(F)(F)F"
3,1.3722 ± 0.0051,"CCCCCC[N+](CC)(CC)CC.[F][Sb-]([F])([F])([F])([F])[F] [N,N,N-triethyl-N-hexylammonium hexafluoroantimonate] + O=S(=O)(O)C(F)(F)F"
4,1.3782 ± 0.0051,"CCCCCC[N+](CC)(CC)CC.F[B-](F)(F)F [N,N,N-triethyl-N-hexylammonium tetrafluoroborate] + O=S(=O)(O)C(F)(F)F"
5,1.3875 ± 0.0051,"CCCCCCCC[N+](CC)(CC)CC.F[P-](F)(F)(F)(F)F [N,N,N-triethyl-N-octylammonium hexafluorophosphate] + O=S(=O)(O)C(F)(F)F"
6,1.3811 ± 0.0051,"CCCCCCCC[N+](CC)(CC)CC.F[B-](F)(F)F [N,N,N-triethyl-N-octylammonium tetrafluoroborate] + O=S(=O)(O)C(F)(F)F"
7,1.3641 ± 0.0051,CC[N+](CC)(CC)CC.[F][Sb-]([F])([F])([F])([F])[F] [tetraethylammonium hexafluoroantimonate] + O=S(=O)(O)C(F)(F)F
8,1.3732 ± 0.0051,CC[N+](CC)(CC)CC.F[B-](F)(F)F [tetraethylammonium tetrafluoroborate] + O=S(=O)(O)C(F)(F)F

# Same assay, conditions: 293.15 K; 101 kPa; Liquid; Standard Abbe refractometry; w1 = 0.6
row,refractive index,SMILES
1,1.3782 ± 0.005,"CCCC[N+](CC)(CC)CC.F[P-](F)(F)(F)(F)F [N,N,N-triethyl-N-butylammonium hexafluorophosphate] + O=S(=O)(O)C(F)(F)F"
2,1.3857 ± 0.0051,"CCCC[N+](CC)(CC)CC.F[B-](F)(F)F [N,N,N-triethyl-N-butylammonium tetrafluoroborate] + O=S(=O)(O)C(F)(F)F"
3,1.3809 ± 0.0051,"CCCCCC[N+](CC)(CC)CC.[F][Sb-]([F])([F])([F])([F])[F] [N,N,N-triethyl-N-hexylammonium hexafluoroantimonate] + O=S(=O)(O)C(F)(F)F"
4,1.3678 ± 0.005,CC[N+](CC)(CC)CC.[F][Sb-]([F])([F])([F])([F])[F] [tetraethylammonium hexafluoroantimonate] + O=S(=O)(O)C(F)(F)F

# Same assay, conditions: 293.15 K; 101 kPa; Liquid; Standard Abbe refractometry; w2 = 0
row,refractive index,SMILES
1,1.3292 ± 0.005,"O=S(=O)(O)C(F)(F)F [methanesulfonic acid, trifluoro-] + CCCCCCCC[N+](CC)(CC)CC.F[B-](F)(F)F"
2,1.3292 ± 0.005,"O=S(=O)(O)C(F)(F)F [methanesulfonic acid, trifluoro-] + CCCCCCCC[N+](CC)(CC)CC.F[P-](F)(F)(F)(F)F"
3,1.3292 ± 0.005,"O=S(=O)(O)C(F)(F)F [methanesulfonic acid, trifluoro-] + CCCCCC[N+](CC)(CC)CC.F[B-](F)(F)F"
4,1.3292 ± 0.005,"O=S(=O)(O)C(F)(F)F [methanesulfonic acid, trifluoro-] + CCCCCC[N+](CC)(CC)CC.F[P-](F)(F)(F)(F)F"
5,1.3292 ± 0.005,"O=S(=O)(O)C(F)(F)F [methanesulfonic acid, trifluoro-] + CCCCCC[N+](CC)(CC)CC.[F][Sb-]([F])([F])([F])([F])[F]"
6,1.3292 ± 0.005,"O=S(=O)(O)C(F)(F)F [methanesulfonic acid, trifluoro-] + CCCC[N+](CC)(CC)CC.F[B-](F)(F)F"
7,1.3292 ± 0.005,"O=S(=O)(O)C(F)(F)F [methanesulfonic acid, trifluoro-] + CCCC[N+](CC)(CC)CC.F[P-](F)(F)(F)(F)F"
8,1.3292 ± 0.005,"O=S(=O)(O)C(F)(F)F [methanesulfonic acid, trifluoro-] + CC[N+](CC)(CC)CC.F[B-](F)(F)F"
9,1.3292 ± 0.005,"O=S(=O)(O)C(F)(F)F [methanesulfonic acid, trifluoro-] + CC[N+](CC)(CC)CC.F[P-](F)(F)(F)(F)F"
10,1.3292 ± 0.005,"O=S(=O)(O)C(F)(F)F [methanesulfonic acid, trifluoro-] + CC[N+](CC)(CC)CC.[F][Sb-]([F])([F])([F])([F])[F]"

# Assay: refractive index (Na D-line) (dimensionless)
# Details: 293.15 K; 101.33 kPa; Liquid; Standard Abbe refractometry
row,refractive index,SMILES
1,1.3292 ± 0.005,"O=S(=O)(O)C(F)(F)F [methanesulfonic acid, trifluoro-]"
